Laboratory results reported in the NIST ThermoML archive (doi:10.1016/j.fluid.2006.05.032).
Numbers after ± are expanded uncertainties.

Experiment: xn = mol fraction of the nth substance listed
Details: Liquid, Vibrating tube method

Cc1ccccc1 [toluene] + CCCO
mass density [kg/m3]
Details	x2 = 0	x2 = 0.125	x2 = 0.25	x2 = 0.375	x2 = 0.5	x2 = 0.625	x2 = 0.75	x2 = 0.875
323.15 K, 35000 kPa	866 ± 1	859.3 ± 1	853.3 ± 1	847.1 ± 1	840.6 ± 1	833.4 ± 1	825.6 ± 1.1	816.4 ± 1.1
323.15 K, 40000 kPa	869.4 ± 1	862.8 ± 1	856.5 ± 1	850.3 ± 1	843.9 ± 1.1	836.7 ± 1.1	829 ± 1.1	819.8 ± 1.1
323.15 K, 45000 kPa	872.5 ± 1	865.9 ± 1	859.8 ± 1.1	853.6 ± 1.1	847.1 ± 1.1	840 ± 1.1	832.2 ± 1.1	822.9 ± 1.1
323.15 K, 50000 kPa	875.7 ± 1	869.2 ± 1.1	863 ± 1.1	856.8 ± 1.1	850.3 ± 1.1	843.1 ± 1.1	835.3 ± 1.1	826 ± 1.1
323.15 K, 55000 kPa	878.7 ± 1.1	872.2 ± 1.1	866 ± 1.1	859.8 ± 1.1	853.3 ± 1.1	846.1 ± 1.1	838.3 ± 1.1	829 ± 1.1
323.15 K, 60000 kPa	881.7 ± 1.1	875.1 ± 1.1	869 ± 1.1	862.7 ± 1.1	856.2 ± 1.1	848.9 ± 1.1	841.1 ± 1.1	831.9 ± 1.1
323.15 K, 65000 kPa	884.6 ± 1.1	878.1 ± 1.1	871.9 ± 1.1	865.6 ± 1.1	859.1 ± 1.1	851.8 ± 1.1	844 ± 1.1	834.6 ± 1.1
333.15 K, 100 kPa	828.8 ± 1	822 ± 1	815.6 ± 1	809.5 ± 1	803.2 ± 1	796.3 ± 1	788.7 ± 1	779.8 ± 1
333.15 K, 5000 kPa	833.5 ± 1	826.8 ± 1	820.5 ± 1	814.3 ± 1	808 ± 1	801.1 ± 1	793.4 ± 1	784.4 ± 1
333.15 K, 10000 kPa	838.2 ± 1	831.4 ± 1	825 ± 1	818.9 ± 1	812.6 ± 1	805.8 ± 1	798.1 ± 1	789.1 ± 1
333.15 K, 15000 kPa	842.6 ± 1	835.7 ± 1	829.4 ± 1	823.3 ± 1	817 ± 1	810.1 ± 1	802.4 ± 1	793.4 ± 1
333.15 K, 20000 kPa	846.6 ± 1	839.8 ± 1	833.6 ± 1	827.4 ± 1	821.1 ± 1	814.2 ± 1	806.6 ± 1	797.5 ± 1
333.15 K, 25000 kPa	850.5 ± 1	843.8 ± 1	837.6 ± 1	831.4 ± 1	825 ± 1	818.2 ± 1	810.5 ± 1	801.4 ± 1
333.15 K, 30000 kPa	854.3 ± 1	847.6 ± 1	841.4 ± 1	835.2 ± 1	828.8 ± 1	821.9 ± 1	814.1 ± 1	805 ± 1.1
333.15 K, 35000 kPa	857.9 ± 1	851.3 ± 1	845 ± 1	838.9 ± 1	832.5 ± 1.1	825.6 ± 1.1	817.8 ± 1.1	808.6 ± 1.1
333.15 K, 40000 kPa	861.4 ± 1	854.8 ± 1	848.6 ± 1.1	842.4 ± 1.1	836 ± 1.1	829.1 ± 1.1	821.2 ± 1.1	812 ± 1.1
333.15 K, 45000 kPa	864.8 ± 1	858.2 ± 1.1	852 ± 1.1	845.8 ± 1.1	839.4 ± 1.1	832.4 ± 1.1	824.6 ± 1.1	815.4 ± 1.1
333.15 K, 50000 kPa	868.1 ± 1.1	861.5 ± 1.1	855.2 ± 1.1	849 ± 1.1	842.7 ± 1.1	835.6 ± 1.1	827.8 ± 1.1	818.6 ± 1.1
333.15 K, 55000 kPa	871.4 ± 1.1	864.6 ± 1.1	858.4 ± 1.1	852.2 ± 1.1	845.8 ± 1.1	838.8 ± 1.1	831 ± 1.1	821.9 ± 1.1
333.15 K, 60000 kPa	874.5 ± 1.1	867.8 ± 1.1	861.4 ± 1.1	855.3 ± 1.1	848.9 ± 1.1	841.8 ± 1.1	834 ± 1.1	824.8 ± 1.1
333.15 K, 65000 kPa	877.5 ± 1.1	870.7 ± 1.1	864.5 ± 1.1	858.3 ± 1.1	851.9 ± 1.1	844.8 ± 1.1	836.9 ± 1.1	827.7 ± 1.1
343.15 K, 100 kPa	819.4 ± 1	812.2 ± 1	805.5 ± 1	799.4 ± 1	793.3 ± 1	786.5 ± 1	779.1 ± 1	770.7 ± 1
343.15 K, 5000 kPa	824.5 ± 1	817.3 ± 1	810.8 ± 1	804.6 ± 1	798.4 ± 1	791.7 ± 1	784.2 ± 1	775.8 ± 1
343.15 K, 10000 kPa	829.3 ± 1	822.3 ± 1	815.8 ± 1	809.6 ± 1	803.4 ± 1	796.6 ± 1	789.1 ± 1	780.6 ± 1
343.15 K, 15000 kPa	833.9 ± 1	826.9 ± 1	820.4 ± 1	814.3 ± 1	–	–	–	–
